Like-named read-outs stand apart in the source and are kept apart here.

The subject of the test is test plant species. The experiment in a line: Post-emergent herbicidal activity test (greenhouse, foliar spray, visual growth reduction). The format is in vivo. As to conditions: post-emergence, 336 h, 140 g ai/ha, 14 days after application. The procedure: Post-emergent Test: Seeds or nutlets of the desired test plant species were planted in Sun Gro Metro-Mix® 360 planting mixture, which typically has a pH of 6.0 to 6.8 and an organic matter content of about 30 percent, in plastic pots with a surface area of 64 square centimeters. In some aspects, to ensure good germination and healthy plants, a fungicide treatment and/or other chemical or physical treatment was applied. The plants were grown for 7-21 d in a greenhouse with an approximate 15 h photoperiod which was maintained at 23-29° C. during the day and 22-28° C. during the night. Nutrients and water were added on a regular basis and supplemental lighting was provided with overhead metal halide 1000-Watt lamps as necessary. Plants were used for testing when they reached the first or second true leaf stage. A weighed amount, determined by the highest rate to be tested, of each test compound was placed in a 25 mL glass vial and was dissolved in 4 mL of a 97:3 v/v mixture of acetone and DMSO to obtain concentrated stock solutions. […] The concentrated stock solutions obtained were diluted with 20 mL of an aqueous mixture containing acetone, water, isopropyl alcohol, DMSO, […] crop oil concentrate, and X-77 surfactant in a 48.5:39:10:1.5:1.0:0.02 v/v ratio to obtain spray solutions containing the application rate. Compound requirements are based upon a 12 mL application volume at a rate of 187 liters per hectare (L/ha). Formulated compounds were applied to the plant material with an overhead Mandel track sprayer equipped with […] nozzles calibrated to deliver 187 L/ha over an application area of 0.64 square meters at a spray height of 18 inches (43 cm) above the average plant canopy height. Control plants were sprayed in the same manner with the solvent blank. The treated plants and control plants were placed in a greenhouse as described above and watered by subirrigation to prevent wash-off of the test compounds. After 14 d, the condition of the test plants as compared with that of the nontreated and control plants was determined visually and scored on a scale of 0 to 100 percent where 0 corresponds to no injury and 100 corresponds to complete control. In the reporting of the results, Table A: Percent Growth Reduction Conversion Table was used.

Setting [1] is: ALOMY: blackgrass (Alopecurus myosuroides), read-out: Visual Growth Reduction (%) 14 Days After Application, ALOMY.
[2] abbreviates: AMARE: redroot pigweed (Amaranthus retroflexus), read-out: Visual Growth Reduction (%) 14 Days After Application, AMARE.
Where [3] appears, read: AVEFA: wild oat (Avena fatua), read-out: Visual Growth Reduction (%) 14 Days After Application, AVEFA.
Where [4] appears, read: CHEAL: lambsquarters (Chenopodium album), read-out: Visual Growth Reduction (%) 14 Days After Application, CHEAL.
Setting [5] is: CIRAR: canada thistle (Cirsium arvense), read-out: Visual Growth Reduction (%) 14 Days After Application, CIRAR.
[6] abbreviates: CYPES: yellow nutsedge (Cyperus esculentus), read-out: Visual Growth Reduction (%) 14 Days After Application, CYPES.
Setting [7] is: DIGSA: crabgrass (Digitaria sanguinalis), read-out: Visual Growth Reduction (%) 14 Days After Application, DIGSA.
Setting [8] is: ECHCG: barnyardgrass (Echinochloa crus-galli), read-out: Visual Growth Reduction (%) 14 Days After Application, ECHCG.
[9] abbreviates: IPOHE: ivy-leaf morning glory (Ipomoea hederacea), read-out: Visual Growth Reduction (%) 14 Days After Application, IPOHE.
Setting [10] is: KCHSC: kochia (Bassia scoparia), read-out: Visual Growth Reduction (%) 14 Days After Application, KCHSC.
Where [11] appears, read: ORYSA: rice (Oryza sativa), read-out: Visual Growth Reduction (%) 14 Days After Application, ORYSA.
[12] abbreviates: SETFA: giant foxtail (Setaria faberi), read-out: Visual Growth Reduction (%) 14 Days After Application, SETFA.
Where [13] appears, read: SORVU: grain sorghum (Sorghum vulgare), read-out: Visual Growth Reduction (%) 14 Days After Application, SORVU.
Where [14] appears, read: STEME: common chickweed (Stellaria media), read-out: Visual Growth Reduction (%) 14 Days After Application, STEME.
The mark [15] stands for this setting: TRZAS: wheat, spring (Triticum aestivum), read-out: Visual Growth Reduction (%) 14 Days After Application, TRZAS.

As for `O=C(OCc1ccccn1)c1nc(-c2ccc(C(F)(F)F)cc2Cl)ccc1Cl` [F54, Pyridin-2-ylmethyl 3-chloro-6-(2-chloro-4-(trifluoromethyl)phenyl)picolinate], the pest or weed control at 140 g/ha under setting [1] was 0 to 29%; the pest or weed control at 140 g/ha under setting [2] was 0 to 29%; the pest or weed control at 140 g/ha under setting [3] lay within 0 to 29%; the pest or weed control at 140 g/ha under setting [4] lay within 0 to 29%; the pest or weed control at 140 g/ha under setting [5] was 0 to 29%; the pest or weed control at 140 g/ha under setting [6] was in the range of 0 to 29%. Also, the pest or weed control at 140 g/ha is, setting by setting: under setting [7], 0 to 29%; under setting [8], 75 to 84%; under setting [9], 95 to 100%; under setting [10], 95 to 100%; under setting [11], 0 to 29%; under setting [12], 85 to 94%. Also, the pest or weed control at 140 g/ha runs as follows: under setting [13], 95 to 100%; under setting [14], 0 to 29%; under setting [15], 85 to 94%.
`COC(=O)c1cccc(-c2ccc(C(F)(F)F)cc2Cl)n1` [F55, Methyl 6-(2-chloro-4-(trifluoromethyl)phenyl)picolinate]: the pest or weed control at 140 g/ha by setting is: under setting [1], 0 to 29%; under setting [2], 95 to 100%; under setting [3], 0 to 29%; under setting [4], 60 to 74%; under setting [5], 0 to 29%; under setting [6], 0 to 29%. Besides, the pest or weed control at 140 g/ha is, setting by setting: under setting [7], 0 to 29%; under setting [8], 0 to 29%; under setting [9], 30 to 44%; under setting [10], 0 to 29%; under setting [11], 0 to 29%; under setting [12], 0 to 29%. The pest or weed control at 140 g/ha is, setting by setting: under setting [13], 0 to 29%; under setting [14], 0 to 29%; under setting [15], 0 to 29%.
For `COC(=O)c1cc(Cl)cc(-c2ccc(Cl)cc2Cl)n1` [F56, Methyl 4-chloro-6-(2,4-dichlorophenyl) picolinate], the pest or weed control at 140 g/ha reads like this: under setting [1], 0 to 29%; under setting [2], 0 to 29%; under setting [3], 0 to 29%; under setting [4], 0 to 29%; under setting [5], 0 to 29%; under setting [6], 0 to 29%. In addition, the pest or weed control at 140 g/ha under setting [7] fell in the range of 0 to 29%; the pest or weed control at 140 g/ha under setting [8] was in the range of 0 to 29%; the pest or weed control at 140 g/ha under setting [9] was 0 to 29%; the pest or weed control at 140 g/ha under setting [10] lay within 0 to 29%; the pest or weed control at 140 g/ha under setting [11] was 0 to 29%; the pest or weed control at 140 g/ha under setting [12] lay within 0 to 29%. Besides, the pest or weed control at 140 g/ha lay in the range of 0 to 29% under setting [13], 0 to 29% under setting [14] and 0 to 29% under setting [15].
In the case of `COC(=O)c1cc(Cl)cc(-c2ccc(C(F)(F)F)cc2Cl)n1` [F57, Methyl 4-chloro-6-(2-chloro-4-(trifluoromethyl)phenyl)picolinate], the pest or weed control at 140 g/ha is, setting by setting: under setting [1], 0 to 29%; under setting [2], 0 to 29%; under setting [3], 0 to 29%; under setting [4], 0 to 29%; under setting [5], 0 to 29%; under setting [6], 0 to 29%. Moreover, the pest or weed control at 140 g/ha under setting [7] lay in the range of 0 to 29%; the pest or weed control at 140 g/ha under setting [8] lay within 0 to 29%; the pest or weed control at 140 g/ha under setting [9] fell in the range of 0 to 29%; the pest or weed control at 140 g/ha under setting [10] fell in the range of 0 to 29%; the pest or weed control at 140 g/ha under setting [11] lay in the range of 0 to 29%; the pest or weed control at 140 g/ha under setting [12] was 0 to 29%. Besides, the pest or weed control at 140 g/ha lay within 0 to 29% under setting [13], 0 to 29% under setting [14] and 0 to 29% under setting [15].
Consider `COC(=O)c1nc(-c2ccc(OC(F)(F)F)cc2Cl)ccc1Cl` [F58, Methyl 3-chloro-6-(2-chloro-4-(trifluoromethoxy)phenyl)picolinate], for which the pest or weed control at 140 g/ha lay in the range of 30 to 44% under setting [1]; 95 to 100% under setting [2]; 45 to 59% under setting [3]; 60 to 74% under setting [4]; 95 to 100% under setting [5]; 0 to 29% under setting [6]. Besides, the pest or weed control at 140 g/ha fell in the range of 85 to 94% under setting [7]; 0 to 29% under setting [8]; 95 to 100% under setting [9]; 30 to 44% under setting [10]; 0 to 29% under setting [11]; 75 to 84% under setting [12]. Under setting [13], the pest or weed control at 140 g/ha is 85 to 94%.
`COC(=O)c1nc(-c2ccc(C#N)cc2Cl)ccc1Cl` [F59, methyl 3-chloro-6-(2-chloro-4-cyanophenyl)picolinate]: the pest or weed control at 140 g/ha by setting is: under setting [1], 0 to 29%; under setting [2], 85 to 94%; under setting [3], 0 to 29%; under setting [4], 60 to 74%; under setting [5], 30 to 44%; under setting [6], 0 to 29%. Moreover, the pest or weed control at 140 g/ha was in the range of 60 to 74% under setting [7]; 45 to 59% under setting [8]; 95 to 100% under setting [9]; 45 to 59% under setting [10]; 0 to 29% under setting [11]; 45 to 59% under setting [12]. For the same compound, the pest or weed control at 140 g/ha is, setting by setting: under setting [13], 75 to 84%; under setting [14], 0 to 29%; under setting [15], 0 to 29%.
Consider `COC(=O)c1nc(-c2ccc(C)cc2Cl)ccc1Cl` [F60, Methyl 3-chloro-6-(2-chloro-4-methylphenyl) picolinate], for which the pest or weed control at 140 g/ha lay in the range of 0 to 29% under setting [1]; 60 to 74% under setting [2]; 0 to 29% under setting [3]; 0 to 29% under setting [4]; 0 to 29% under setting [5]; 0 to 29% under setting [6]. The pest or weed control at 140 g/ha was in the range of 0 to 29% under setting [7]; 0 to 29% under setting [8]; 45 to 59% under setting [9]; 0 to 29% under setting [10]; 0 to 29% under setting [12]; 0 to 29% under setting [13]. Under setting [14], the pest or weed control at 140 g/ha is 0 to 29%.

Values taken from patent publication US20230017045A1, “PYRIDINE AND PYRIMIDINE CARBOXYLATE HERBICIDES AND METHODS OF USE THEREOF” (Dow AgroSciences LLC, priority 2017, published 2023).
